Results from patent publication US20230382925A1, “MODULATORS OF CYSTIC FIBROSIS TRANSMEMBRANE CONDUCTANCE REGULATOR” (VERTEX PHARMACEUTICALS INCORPORATED, priority 2020, published 2023).
Read-outs that look alike come from different tables or passages of the source.

Molecular target: CFTR (Homo sapiens, UniProt P13569)
Assay: Membrane Potential Dye, Enteroid Assay B
Format: cell-based
How it was run: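 Activity given as % of a triple-combination reference (1 μM and 3 μM correctors, 300 nM acute potentiator). Enteroids were preincubated 18-24 h with compound; chloride efflux then measured 15 min by methyl oxonol fluorescence after forskolin/IBMX/Compound III stimulation in chloride-free buffer containing CaCCinh-A01 and Chicago Sky Blue.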

[1] = Table 10, read-out: Ent. B EC50

Sequence of CFTR (P13569 with tags, fused parts or gaps DEL508-508): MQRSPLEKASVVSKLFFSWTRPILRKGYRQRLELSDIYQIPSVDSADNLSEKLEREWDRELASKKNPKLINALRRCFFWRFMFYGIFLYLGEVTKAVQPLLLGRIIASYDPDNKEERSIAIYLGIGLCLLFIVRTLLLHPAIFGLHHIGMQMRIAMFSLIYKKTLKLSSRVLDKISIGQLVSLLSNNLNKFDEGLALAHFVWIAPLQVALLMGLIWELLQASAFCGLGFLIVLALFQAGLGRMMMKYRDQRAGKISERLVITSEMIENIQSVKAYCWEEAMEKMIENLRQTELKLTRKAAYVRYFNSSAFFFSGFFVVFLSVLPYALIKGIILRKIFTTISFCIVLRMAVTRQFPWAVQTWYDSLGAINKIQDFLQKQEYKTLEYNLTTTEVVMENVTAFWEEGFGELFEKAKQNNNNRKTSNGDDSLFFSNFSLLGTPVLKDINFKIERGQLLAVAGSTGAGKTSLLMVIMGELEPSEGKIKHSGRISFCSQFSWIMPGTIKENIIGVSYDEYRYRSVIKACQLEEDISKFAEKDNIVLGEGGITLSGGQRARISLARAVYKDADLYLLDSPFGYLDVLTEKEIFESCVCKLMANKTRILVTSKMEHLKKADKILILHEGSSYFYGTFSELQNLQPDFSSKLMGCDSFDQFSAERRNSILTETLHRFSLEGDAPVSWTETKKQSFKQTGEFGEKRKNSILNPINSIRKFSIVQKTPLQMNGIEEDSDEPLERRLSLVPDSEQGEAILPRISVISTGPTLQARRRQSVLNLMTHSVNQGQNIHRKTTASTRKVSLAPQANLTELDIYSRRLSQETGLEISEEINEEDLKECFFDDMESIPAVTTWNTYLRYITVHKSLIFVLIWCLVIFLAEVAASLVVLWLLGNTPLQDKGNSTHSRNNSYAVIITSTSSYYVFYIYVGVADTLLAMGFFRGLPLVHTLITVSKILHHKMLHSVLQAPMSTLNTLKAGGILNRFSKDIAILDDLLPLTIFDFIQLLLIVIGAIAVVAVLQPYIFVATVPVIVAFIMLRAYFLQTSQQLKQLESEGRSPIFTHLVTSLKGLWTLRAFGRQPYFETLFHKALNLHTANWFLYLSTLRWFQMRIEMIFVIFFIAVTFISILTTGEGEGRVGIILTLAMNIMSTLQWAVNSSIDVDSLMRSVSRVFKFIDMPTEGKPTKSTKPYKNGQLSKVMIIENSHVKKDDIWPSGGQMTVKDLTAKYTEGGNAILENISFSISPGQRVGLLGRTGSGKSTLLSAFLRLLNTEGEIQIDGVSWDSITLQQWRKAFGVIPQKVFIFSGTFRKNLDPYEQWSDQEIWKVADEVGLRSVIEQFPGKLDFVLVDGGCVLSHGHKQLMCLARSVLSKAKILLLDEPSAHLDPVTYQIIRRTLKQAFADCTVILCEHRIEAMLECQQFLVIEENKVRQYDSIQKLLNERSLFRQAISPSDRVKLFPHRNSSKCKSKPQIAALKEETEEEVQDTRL

| Compound | Ent. B Max Activity (%) (Table 9) | EC50 (Table 9, read-out: Ent. B EC50) [µM] | also measured |
| --- | --- | --- | --- |
| CC(=O)N[C@H]1C[C@@H](N2C(=O)c3cccc(c3)S(=O)(=O)Nc3nc(cc(-c4c(C)cccc4C)n3)OC[C@H]2CC(C)C)C1 [Compound 366] | +++ (+++ is >60%) | < 1 |  |
| Cc1cccc(C)c1-c1cc2nc(n1)NS(=O)(=O)c1cccc(c1)C(=O)N([C@H]1C[C@@H](NC(C)C)C1)[C@H](CC(C)C)CO2 [Compound 367] | +++ (+++ is >60%) | < 1 |  |
| COC(=O)N[C@H]1C[C@@H](N2C(=O)c3cccc(c3)S(=O)(=O)Nc3nc(cc(-c4c(C)cccc4C)n3)OC[C@H]2CC(C)C)C1 [Compound 368] | +++ (+++ is >60%) | < 1 |  |
| Cc1cccc(C)c1-c1cc2nc(n1)NS(=O)(=O)c1cccc(c1)C(=O)N(C1CC(N3CCCC3=O)C1)[C@H](CC(C)C)CO2 (some centres unmarked) [Compound 369] |  |  | Ent. B Max Activity (%) (Table 10): ++ (++ is 30-60%); EC50 [1]: < 1 µM |
| Cc1cccc(C)c1-c1cc2nc(n1)NS(=O)(=O)c1cccc(c1)C(=O)N(C1CC(N[C@H]3CC[C@@H](O)CC3)C1)[C@H](CC(C)C)CO2 (some centres unmarked) [Compound 371] | +++ (+++ is >60%) | 1 to 3 |  |
| Cc1cccc(C)c1-c1cc2nc(n1)NS(=O)(=O)c1cccc(c1)C(=O)N(C1CC(N[C@H]3CC[C@H](CO)CC3)C1)[C@H](CC(C)C)CO2 (some centres unmarked) [Compound 373] | +++ (+++ is >60%) | < 1 |  |
| Cc1cccc(C)c1-c1cc2nc(n1)NS(=O)(=O)c1cccc(c1)C(=O)N(C1CC(NC3CCC3)C1)[C@H](CC(C)C)CO2 (some centres unmarked) [Compound 375] | +++ (+++ is >60%) | < 1 |  |
| Cc1cccc(C)c1-c1cc2nc(n1)NS(=O)(=O)c1cccc(c1)C(=O)N(C1CC(N(C)C3CCC3)C1)[C@H](CC(C)C)CO2 (some centres unmarked) [Compound 376] | +++ (+++ is >60%) | < 1 |  |
| Cc1cccc(C)c1-c1cc2nc(n1)NS(=O)(=O)c1cccc(c1)C(=O)N(C1CC(NCCC(C)C)C1)[C@H](CC(C)C)CO2 (some centres unmarked) [Compound 377] | +++ (+++ is >60%) | < 1 |  |
| Cc1cccc(C)c1-c1cc2nc(n1)NS(=O)(=O)c1cccc(c1)C(=O)N([C@H]1C[C@@H](N3C[C@@H](C)O[C@@H](C)C3)C1)[C@H](CC(C)C)CO2 [Compound 380] | +++ (+++ is >60%) | < 1 |  |
| COCCN(C)C1CC(N2C(=O)c3cccc(c3)S(=O)(=O)Nc3nc(cc(-c4c(C)cccc4C)n3)OC[C@H]2CC(C)C)C1 (some centres unmarked) [Compound 382] | +++ (+++ is >60%) | < 1 |  |
| Cc1cccc(C)c1-c1cc2nc(n1)NS(=O)(=O)c1cccc(c1)C(=O)N(C1CC(N3CCN(C)C(=O)C3)C1)[C@H](CC(C)C)CO2 (some centres unmarked) [Compound 384] | +++ (+++ is >60%) | < 1 |  |
| COCCN1CCN([C@H]2C[C@@H](N3C(=O)c4cccc(c4)S(=O)(=O)Nc4nc(cc(-c5c(C)cccc5C)n4)OC[C@H]3CC(C)C)C2)CC1=O [Compound 385] | +++ (+++ is >60%) | < 1 |  |
| Cc1cccc(C)c1-c1cc2nc(n1)NS(=O)(=O)c1cccc(c1)C(=O)N([C@H]1C[C@@H](N3CCC(OCC4CC4)CC3)C1)[C@H](CC(C)C)CO2 [Compound 386] | +++ (+++ is >60%) | < 1 |  |
| Cc1cccc(C)c1-c1cc2nc(n1)NS(=O)(=O)c1cccc(c1)C(=O)N([C@H]1C[C@@H](N3CCOCC3)C1)[C@H](CC(C)C)CO2 [Compound 387] | +++ (+++ is >60%) | < 1 |  |
| Cc1cccc(C)c1-c1cc2nc(n1)NS(=O)(=O)c1cccc(c1)C(=O)N([C@H]1C[C@@H](N3CCCCC3)C1)[C@H](CC(C)C)CO2 [Compound 388] | +++ (+++ is >60%) | < 1 |  |

| Compound | Ent. B Max Activity (%) (Table 9) | EC50 (Table 9, read-out: Ent. B EC50) [µM] | also measured |
| --- | --- | --- | --- |
| Cc1cccc(C)c1-c1cc2cc(n1)NS(=O)(=O)c1cccc(c1)C(=O)N(C1CC3(CC3)C1)[C@H](CC(C)C)CO2 [Compound 389] |  |  | Ent. B Max Activity (%): +++ (+++ is >60%); EC50 (read-out: Ent. B EC50): < 1 µM |
| Cc1cccc(C)c1-c1cc2nc(n1)NS(=O)(=O)c1cccc(n1)C(=O)N(C1CC3(CCN(C)CC3)C1)[C@H](CC(C)C)CO2 [Compound 390] |  |  | Ent. B Max Activity (%): +++ (+++ is >60%); EC50 (read-out: Ent. B EC50): < 1 µM |
| COC(=O)N1CCC2(CC1)CC(N1C(=O)c3cccc(n3)S(=O)(=O)Nc3nc(cc(-c4c(C)cccc4C)n3)OC[C@H]1CC(C)C)C2 [Compound 391] |  |  | Ent. B Max Activity (%): +++ (+++ is >60%); EC50 (read-out: Ent. B EC50): < 1 µM |
| Cc1cccc(C)c1-c1cc2nc(n1)NS(=O)(=O)c1cccc(n1)C(=O)N(C1CC3(CCNCC3)C1)[C@H](CC(C)C)CO2 [Compound 392] |  |  | Ent. B Max Activity (%): +++ (+++ is >60%); EC50 (read-out: Ent. B EC50): 1 to 3 µM |
| CC(C)C[C@@H]1COc2cc(C3CCCCC3(C)C)nc(n2)NS(=O)(=O)c2cccc(c2)C(=O)N1C1CC2(CCN(C)CC2)C1 (some centres unmarked) [Compound 394] |  |  | Ent. B Max Activity (%): +++ (+++ is >60%); EC50 (read-out: Ent. B EC50): 1 to 3 µM |
| CC(C)(C)C[C@@H]1COc2cc([C@H]3CCCCC3(C)C)nc(n2)NS(=O)(=O)c2cccc(c2)C(=O)N1C1CC2(CC2)C1 [Compound 397] |  |  | Ent. B Max Activity (%): ++ (++ is 30-60%); EC50 (read-out: Ent. B EC50): < 1 µM |
| CCC(O)(CC)[C@H]1CC2(C[C@H](N3C(=O)c4cccc(c4)S(=O)(=O)Nc4nc(cc(-c5c(C)cccc5C)n4)OC[C@H]3CC(C)(C)C)C2)C1 (some centres unmarked) [Compound 408] |  |  | Ent. B Max Activity (%) (Table 10): +++ (+++ is >60%); EC50 [1]: < 1 µM |
| CCC(O)(CC)[C@H]1CC2(C[C@H](N3C(=O)c4cccc(c4)S(=O)(=O)Nc4nc(cc(-c5c(C)cccc5C)n4)OC[C@H]3CC(C)(C)C)C2)C1 (some centres unmarked) [Compound 409] |  |  | Ent. B Max Activity (%) (Table 10): +++ (+++ is >60%); EC50 [1]: < 1 µM |
| Cc1cccc(C)c1-c1cc2nc(n1)NS(=O)(=O)c1cccc(n1)C(=O)N([C@H]1C[C@@H](C(C)(C)O)C1)[C@H](CC(C)(C)C)CO2 [Compound 410] |  |  | Ent. B Max Activity (%) (Table 10): +++ (+++ is >60%); EC50 [1]: < 1 µM |
| Cc1cccc(C)c1-c1cc2nc(n1)NS(=O)(=O)c1cccc(n1)C(=O)N(C1CC3(CC(C(=O)N(C)C)C3)C1)[C@H](CC(C)(C)C)CO2 (some centres unmarked) [Compound 414] |  |  | Ent. B Max Activity (%) (Table 10): +++ (+++ is >60%); EC50 [1]: < 1 µM |
| Cc1cccc(C)c1-c1cc2nc(n1)NS(=O)(=O)c1cccc(n1)C(=O)N(C1CC3(CC(C(=O)N(C)C)C3)C1)[C@H](CC(C)(C)C)CO2 (some centres unmarked) [Compound 415] |  |  | Ent. B Max Activity (%) (Table 10): +++ (+++ is >60%); EC50 [1]: < 1 µM |
| Cc1cccc(C)c1-c1cc2nc(n1)NS(=O)(=O)c1cccc(c1)C(=O)N(C1CC3(CCN(C(=O)C(C)C)CC3)C1)[C@H](CC(C)(C)C(F)(F)F)CO2 [Compound 416] |  |  | Ent. B Max Activity (%) (Table 10): +++ (+++ is >60%); EC50 [1]: < 1 µM |
| CCC(=O)N1CCC2(CC1)CC(N1C(=O)c3cccc(c3)S(=O)(=O)Nc3nc(cc(-c4c(C)cccc4C)n3)OC[C@H]1CC(C)(C)C(F)(F)F)C2 [Compound 417] |  |  | Ent. B Max Activity (%) (Table 10): +++ (+++ is >60%); EC50 [1]: < 1 µM |
| COC(=O)NC1CC(N2C(=O)c3cccc(c3)S(=O)(=O)Nc3nc(cc(-c4c(C)cccc4C)n3)OC[C@H]2CC(C)(C)C(F)(F)F)C1 (some centres unmarked) [Compound 418] | +++ (+++ is >60%) | < 1 |  |
| COC(=O)NC1CC(N2C(=O)c3cccc(c3)S(=O)(=O)Nc3nc(cc(-c4c(C)cccc4C)n3)OC[C@H]2CC(C)(C)C(F)(F)F)C1 (some centres unmarked) [Compound 419] |  |  | Ent. B Max Activity (%) (Table 10): +++ (+++ is >60%); EC50 [1]: < 1 µM |
